Reference: patent US10987359B2, “Oxadiazepinone derivatives and methods of treating hepatitis B infections” (priority 2016, dated 2021)

System: HBV
Experiment: HBV replication inhibition assay (BDNA assay) in HepG2.2.15 cells
Type: cell-based
Conditions: Hepatitis B virus, HepG2.2.15, HBV replication assay (BDNA assay), HepG2.2.15 cells; read-out: DNA EC50
Experimental: HBV replication inhibition by the disclosed compounds were determined in cells infected or transfected with HBV or cells with stably integrated HBV, such as HepG2.2.15 cells (Sells et al. 1987). In this example, HepG2.2.15 cells were maintained in cell culture medium containing 10% fetal bovine serum (FBS), Geneticin, L-glutamine, penicillin and streptomycin. HepG2.2.15 cells were seeded in 96-well plates at a density of 40,000 cells/well and were treated with serially diluted compounds at a final DMSO concentration of 0.5% either alone or in combination by adding drugs in a checker box format. Cells were incubated with compounds for three days, after which medium was removed and fresh medium containing compounds was added to cells and incubated for another three days. At day 6, supernatant was removed and treated with DNase at 37° C. for 60 minutes, followed by enzyme inactivation at 75° C. for 15 minutes. Encapsidated HBV DNA was released from the virions and covalently linked HBV polymerase by incubating in lysis buffer (Affymetrix QS0010) containing 2.5 μg proteinase K at 50° C. for 40 minutes. HBV DNA was denatured by addition of 0.2 M NaOH and detected using a branched DNA (BDNA) QuantiGene assay kit according to manufacturer recommendation (Affymetrix). HBV DNA levels were also quantified using qPCR, based on amplification of encapsidated HBV DNA extraction with QuickExtraction Solution (Epicentre Biotechnologies) and amplification of HBV DNA using HBV specific PCR probes that can hybridize to HBV DNA and a fluorescently labeled probe for quantitation. In addition, cell viability of HepG2.2.15 cells incubated with test compounds alone or in combination was determined by using CellTitre-Glo reagent according to the manufacturer protocol (Promega). The mean background signal from wells containing only culture medium was subtracted from all other samples, and percent inhibition at each compound concentration was calculated by normalizing to signals from HepG2.2.15 cells treated with 0.5% DMSO using equation E1. % inhibition=(DMSOave−Xi)/DMSOave×100% E1: […]
where DMSOave is the mean signal calculated from the wells that were treated with DMSO control (0% inhibition control) and Xi is the signal measured from the individual wells. EC50 values, effective concentrations that achieved 50% inhibitory effect, were determined by non-linear fitting using Graphpad Prism software (San Diego, Calif.) and equation E2: Y=Y min+(Y max−Y min)/(1+10(Log EC50−X)×HillSlope) E2: […]
where Y represents percent inhibition values and X represents the logarithm of compound concentrations.
Selected disclosed compounds were assayed in the HBV replication assay (BDNA assay), as described above, and a representative group of these active compounds is shown in Table 7. […] In Table 7, “A” represents 1<EC50≤100; “B” represents 100<EC50≤500; “C” represents 500<EC50≤1000; and “D” represents EC50>1000.

Row | SMILES | EC50 [nM]
1 | Cc1c(F)ccc(NC(=O)N2CCc3nn4c(c3C2)C(=O)N(C)OC(CO)C4)c1F (single isomer, unassigned) [Compound 142_E1, (S*)—N-(2,4-difluoro-3-methylphenyl)-4-(hydroxymethyl)-2-methyl-1-oxo-1,4,5,8,9,11-hexahydropyrido[4′,3′:3,4]pyrazolo[5,1-d][1,2,5]oxadiazepine-10(2H)-carboxamide] | 1 to 100
2 | Cc1cc(NC(=O)N2CCc3nn4c(c3C2)C(=O)N(C)OC(CO)C4)c(F)cc1F (single isomer, unassigned) [Compound 143_E1, (S*)—N-(2,4-difluoro-5-methylphenyl)-4-(hydroxymethyl)-2-methyl-1-oxo-1,4,5,8,9,11-hexahydropyrido[4′,3′:3,4]pyrazolo[5,1-d][1,2,5]oxadiazepine-10(2H)-carboxamide] | 1 to 100
3 | Cc1c(F)c(F)cc(NC(=O)N2CCc3nn4c(c3C2)C(=O)N(C)OC(CO)C4)c1F (single isomer, unassigned) [Compound 144_E1, (S*)-4-(hydroxymethyl)-2-methyl-1-oxo-N-(2,4,5-trifluoro-3-methylphenyl)-1,4,5,8,9,11-hexahydropyrido[4′,3′:3,4]pyrazolo[5,1-d][1,2,5]oxadiazepine-10(2H)-carboxamide] | 1 to 100
4 | CN1OC(CO)Cn2nc3c(c2C1=O)CN(C(=O)Nc1cc(C#N)ccc1F)CC3 (single isomer, unassigned) [Compound 145_E1, (S*)—N-(5-cyano-2-fluorophenyl)-4-(hydroxymethyl)-2-methyl-1-oxo-1,4,5,8,9,11-hexahydropyrido[4′,3′:3,4]pyrazolo[5,1-d][1,2,5]oxadiazepine-10(2H)-carboxamide] | > 1000
5 | CN1OC(CO)Cn2nc3c(c2C1=O)CN(C(=O)Nc1cccc(C#N)c1F)CC3 (single isomer, unassigned) [Compound 146_E1, (S*)—N-(3-cyano-2-fluorophenyl)-4-(hydroxymethyl)-2-methyl-1-oxo-1,4,5,8,9,11-hexahydropyrido[4′,3′:3,4]pyrazolo[5,1-d][1,2,5]oxadiazepine-10(2H)-carboxamide] | 1 to 100
6 | CN1OC(CO)Cn2nc3c(c2C1=O)CN(C(=O)Nc1cc(C(F)(F)F)c(F)cc1F)CC3 (single isomer, unassigned) [Compound 147_E1, (S*)—N-(2,4-difluoro-5-(trifluoromethyl)phenyl)-4-(hydroxymethyl)-2-methyl-1-oxo-1,4,5,8,9,11-hexahydropyrido[4′,3′:3,4]pyrazolo[5,1-d][1,2,5]oxadiazepine-10(2H)-carboxamide] | 1 to 100
7 | CN1OC(CO)Cn2nc3c(c2C1=O)CN(C(=O)Nc1cc(C(F)(F)F)ccc1F)CC3 (single isomer, unassigned) [Compound 148_E1, (S*)—N-(2-fluoro-5-(trifluoromethyl)phenyl)-4-(hydroxymethyl)-2-methyl-1-oxo-1,4,5,8,9,11-hexahydropyrido[4′,3′:3,4]pyrazolo[5,1-d][1,2,5]oxadiazepine-10(2H)-carboxamide] | 100 to 500
8 | CN1OC(CO)Cn2nc3c(c2C1=O)CN(C(=O)Nc1ccc(F)c(C(F)(F)F)c1F)CC3 (single isomer, unassigned) [Compound 149_E1, (S*)—N-(2,4-difluoro-3-(trifluoromethyl)phenyl)-4-(hydroxymethyl)-2-methyl-1-oxo-1,4,5,8,9,11-hexahydropyrido[4′,3′:3,4]pyrazolo[5,1-d][1,2,5]oxadiazepine-10(2H)-carboxamide] | 1 to 100
9 | CN1OC(CO)Cn2nc3c(c2C1=O)CN(C(=O)Nc1cc(Br)ncc1F)CC3 (single isomer, unassigned) [Compound 150_E1, (S*)—N-(2-bromo-5-fluoropyridin-4-yl)-4-(hydroxymethyl)-2-methyl-1-oxo-1,4,5,8,9,11-hexahydropyrido[4′,3′:3,4]pyrazolo[5,1-d][1,2,5]oxadiazepine-10(2H)-carboxamide] | 1 to 100
10 | CN1OC(CO)Cn2nc3c(c2C1=O)CN(C(=O)Nc1cc(F)c(F)c(F)c1F)CC3 (single isomer, unassigned) [Compound 151_E1, (S*)-4-(hydroxymethyl)-2-methyl-1-oxo-N-(2,3,4,5-tetrafluorophenyl)-1,4,5,8,9,11-hexahydropyrido[4′,3′:3,4]pyrazolo[5,1-d][1,2,5]oxadiazepine-10(2H)-carboxamide] | 1 to 100
11 | C[C@@H]1Cc2nn3c(c2CN1C(=O)Nc1ccc(F)c(Cl)c1F)C(=O)N(C)OC(C(=O)N(C)CC(F)F)C3 (single isomer, unassigned) [Compound 152_D1, (4S*,9R)—N10-(3-chloro-2,4-difluorophenyl)-N4-(2,2-difluoroethyl)-N4,2,9-trimethyl-1-oxo-1,4,5,8,9,11-hexahydropyrido[4′,3′:3,4]pyrazolo[5,1-d][1,2,5]oxadiazepine-4,10(2H)-dicarboxamide] | 1 to 100
12 | CNC(=O)C1Cn2nc3c(c2C(=O)N(C)O1)CN(C(=O)Nc1ccc(F)c(C#N)c1F)[C@H](C)C3 (single isomer, unassigned) [Compound 156_D1, (4S*,9R)—N10-(3-cyano-2,4-difluorophenyl)-N4,2,9-trimethyl-1-oxo-1,4,5,8,9,11-hexahydropyrido[4′,3′:3,4]pyrazolo[5,1-d][1,2,5]oxadiazepine-4,10(2H)-dicarboxamide] | > 1000
13 | CC(=O)NCC1Cn2nc3c(c2C(=O)N(C)O1)CN(C(=O)Nc1ccc(F)c(C#N)c1F)CC3 (single isomer, unassigned) [Compound 167_E1, (S*)-4-(acetamidomethyl)-N-(3-cyano-2,4-difluorophenyl)-2-methyl-1-oxo-1,4,5,8,9,11-hexahydropyrido[4′,3′:3,4]pyrazolo[5,1-d][1,2,5]oxadiazepine-10(2H)-carboxamide] | 1 to 100
14 | CC(=O)NCC1Cn2nc3c(c2C(=O)N(C)O1)CN(C(=O)Nc1ccc(F)c(C#N)c1)CC3 (single isomer, unassigned) [Compound 168_E1, (S*)-4-(acetamidomethyl)-N-(3-cyano-4-fluorophenyl)-2-methyl-1-oxo-1,4,5,8,9,11-hexahydropyrido[4′,3′:3,4]pyrazolo[5,1-d][1,2,5]oxadiazepine-10(2H)-carboxamide] | 1 to 100
15 | CC(=O)NCC1Cn2nc3c(c2C(=O)N(C)O1)CN(C(=O)Nc1ccc(F)c(Cl)c1F)CC3 (single isomer, unassigned) [Compound 169_E1, (S*)-4-(acetamidomethyl)-N-(3-chloro-2,4-difluorophenyl)-2-methyl-1-oxo-1,4,5,8,9,11-hexahydropyrido[4′,3′:3,4]pyrazolo[5,1-d][1,2,5]oxadiazepine-10(2H)-carboxamide] | 1 to 100
16 | CC(=O)NCC1Cn2nc3c(c2C(=O)N(C)O1)CN(C(=O)Nc1ccc(F)c(Br)c1F)CC3 (single isomer, unassigned) [Compound 170_E1, (S*)-4-(acetamidomethyl)-N-(3-bromo-2,4-difluorophenyl)-2-methyl-1-oxo-1,4,5,8,9,11-hexahydropyrido[4′,3′:3,4]pyrazolo[5,1-d][1,2,5]oxadiazepine-10(2H)-carboxamide] | 1 to 100
17 | CC(=O)NCC1Cn2nc3c(c2C(=O)N(C)O1)CN(C(=O)Nc1ccc(F)c(Br)c1)CC3 (single isomer, unassigned) [Compound 171_E1, (S*)-4-(acetamidomethyl)-N-(3-bromo-4-fluorophenyl)-2-methyl-1-oxo-1,4,5,8,9,11-hexahydropyrido[4′,3′:3,4]pyrazolo[5,1-d][1,2,5]oxadiazepine-10(2H)-carboxamide] | 1 to 100
